Target: Phosphatidylinositol 3-kinase catalytic subunit type 3 (Homo sapiens, UniProt Q8NEB9)
Test: Kinase Glo Luminescent Kinase Assay: PI 3-Kinase Alpha (A), Pb 3-Kinase Beta (B), Vps34 (C), PI 4-Kinase Beta (D):The luminescence-based ATP detection reagent KinaseGlo was obtained from Promega, (Cat. No. V6714, Lot No. 236161) through Catalys, Wallisellen, Switzerland. L-alpha-phosphatidylinositol (PI, liver, bovine) was obtained from Avanti Polar Lipid (Cat. No. 840042C, Lot#LPI-274), Phosphatidylinositol-4,5-bisphosphate (PIP(4,5)2) was also obtained from Avanti Polar Lipid (Cat. No. 840046X). L-α-Phosphatidylserine (PS) was obtained from Avanti Polar Lipid (Cat. No. 840032C), n-Octylglucoside from Avanti Polar Lipid (Cat. No. 10634425001). Luminescence is a well established readout to determine ATP concentrations and can thus be used to follow the activity of many kinases regardless of their substrate. The Kinase Glo Luminescent Kinase Assay (Promega, Madison/WI, USA) is a homogeneous HTS method of measuring kinase activity by quantifying the amount of ATP remaining in solution following a kinase reaction.

Sequence of Phosphatidylinositol 3-kinase catalytic subunit type 3 (Q8NEB9 whole entry): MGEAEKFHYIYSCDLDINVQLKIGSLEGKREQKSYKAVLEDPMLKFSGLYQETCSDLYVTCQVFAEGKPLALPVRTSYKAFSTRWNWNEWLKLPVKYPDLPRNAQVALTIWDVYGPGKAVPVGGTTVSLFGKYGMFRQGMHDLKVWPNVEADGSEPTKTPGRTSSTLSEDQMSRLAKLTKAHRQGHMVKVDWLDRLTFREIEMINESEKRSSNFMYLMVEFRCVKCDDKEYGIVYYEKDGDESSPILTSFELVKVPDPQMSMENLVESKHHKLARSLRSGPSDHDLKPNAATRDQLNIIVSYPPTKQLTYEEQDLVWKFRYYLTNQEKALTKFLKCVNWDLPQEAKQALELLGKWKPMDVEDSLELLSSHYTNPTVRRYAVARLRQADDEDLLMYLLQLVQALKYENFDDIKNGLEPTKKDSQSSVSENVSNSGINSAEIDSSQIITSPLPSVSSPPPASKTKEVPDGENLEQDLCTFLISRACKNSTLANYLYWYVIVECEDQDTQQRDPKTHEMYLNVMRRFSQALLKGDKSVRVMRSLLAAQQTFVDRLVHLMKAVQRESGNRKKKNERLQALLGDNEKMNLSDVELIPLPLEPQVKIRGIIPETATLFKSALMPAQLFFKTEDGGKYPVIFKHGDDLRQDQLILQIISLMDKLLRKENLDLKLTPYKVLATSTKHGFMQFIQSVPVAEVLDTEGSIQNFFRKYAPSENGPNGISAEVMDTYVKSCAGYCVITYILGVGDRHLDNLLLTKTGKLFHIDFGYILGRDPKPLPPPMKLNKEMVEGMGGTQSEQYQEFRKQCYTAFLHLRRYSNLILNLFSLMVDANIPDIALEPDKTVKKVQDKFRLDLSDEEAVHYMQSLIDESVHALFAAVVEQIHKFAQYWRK

`Cc1ccc(S(=O)(=O)NC[C@H]2C[C@@H](O)C2)cc1-c1cncc(-c2cn(C)nc2C)n1` gave an IC50 of 4.4 µM.
`Cc1cc(-c2cncc(-c3cc(S(=O)(=O)NC[C@H]4C[C@@H](O)C4)ccc3C)n2)n(C)n1` was tested, and the IC50 was 2.45 µM.
With `Cc1ccc(S(=O)(=O)N[C@H]2CC[C@H](O)CC2)cc1-c1cncc(-c2csc(CN3CCOCC3)c2)n1` the IC50 was 8.6 µM.
`Cc1ccc(S(=O)(=O)NC2CC3(CC(O)C3)C2)cc1-c1cncc(-c2cn(C)nc2C)n1` (centres undefined) gave an IC50 of 9.4 µM.
